This passage reports Relative potency results from ChEMBL document CHEMBL1124339, “Conformationally restricted analogues of atriopeptin(103-125)amide” (J Med Chem, 1989).

The structures appear in SMILES notation. Positions of bridges follow the written chain, without caps; N, C: chain ends. Residues, ends and D or L forms follow the SMILES beside them. *: point of attachment. Acm = CC(=O)NC*

The experiment can be described thus: Vasorelaxant activity in norepinephrine-contracted rabbit aortic rings, compared to AP(103-126). Format: functional, Oryctolagus cuniculus, Aorta.
Turning to `CC[C@H](C)[C@@H]1NC(=O)[C@H](CCCN=C(N)N)NC(=O)[C@H](CC(=O)O)NC(=O)[C@H]([C@@H](C)CC)NC(=O)[C@H](CCCN=C(N)N)NC(=O)CNC(=O)CNC(=O)[C@H](Cc2ccccc2)NC(=O)[C@@H](NC(=O)[C@H](CO)NC(=O)[C@@H](N)CO)CSSC[C@@H](C(=O)N[C@@H](CC(N)=O)C(=O)N[C@@H](CO)C(=O)N[C@@H](Cc2ccccc2)C(=O)N[C@@H](CCCN=C(N)N)C(N)=O)NC(=O)CNC(=O)[C@H](CC(C)C)NC(=O)CNC(=O)[C@H](CO)NC(=O)[C@H](CCC(N)=O)NC(=O)[C@H](C)NC(=O)CNC1=O`, the Relative potency is on record as 1.7. Next, `CC[C@H](C)[C@@H]1NC(=O)[C@H](CCCN=C(N)N)NC(=O)[C@H](CC(=O)O)NC(=O)[C@H]([C@@H](C)CC)NC(=O)[C@H](CCCN=C(N)N)NC(=O)[C@H]2CSSC[C@@H](NC(=O)[C@H](CCC(N)=O)NC(=O)[C@H](C)NC(=O)CNC1=O)C(=O)NCC(=O)N[C@@H](CC(C)C)C(=O)NCC(=O)N[C@H](C(=O)N[C@@H](CC(N)=O)C(=O)N[C@@H](CO)C(=O)N[C@@H](Cc1ccccc1)C(=O)N[C@@H](CCCN=C(N)N)C(N)=O)CSSC[C@H](NC(=O)[C@H](CO)NC(=O)[C@@H](N)CO)C(=O)N[C@@H](Cc1ccccc1)C(=O)NCC(=O)N2`: 0.0073. Next, `CC[C@H](C)[C@H](NC(=O)[C@H](CC/N=C(/N)NO)NC(=O)[C@H](CC(=O)O)NC(=O)[C@@H](NC(=O)[C@H](CCN=C(N)N)NC(=O)[C@H](CSCNC(C)=O)NC(=O)CNC(=O)[C@H](Cc1ccccc1)NC(=O)[C@H](CSCNC(C)=O)NC(=O)[C@H](CO)NC(=O)[C@@H](N)CO)[C@@H](C)CC)C(=O)NCC(=O)N[C@@H](C)C(=O)N[C@@H](CCC(N)=O)C(=O)C1SSC[C@@H](C(=O)N[C@@H](CC(N)=O)C(=O)CN[C@@H](CO)C(=O)N[C@@H](Cc2ccccc2)C(=O)N[C@@H](CCCN=C(N)N)C(N)=O)NC(=O)CNC(=O)[C@H](CC(C)C)NC(=O)CNC(=O)[C@H]1N` (stereo in doubt; 9b): 0.013; `CC[C@H](C)[C@H](NC(=O)[C@H](CC/N=C(/N)NO)NC(=O)[C@H](CC(=O)O)NC(=O)[C@@H](NC(=O)[C@H](CCN=C(N)N)NC(=O)[C@H](CSCNC(C)=O)NC(=O)CNC(=O)[C@H](Cc1ccccc1)NC(=O)[C@H](CSCNC(C)=O)NC(=O)[C@H](CO)NC(=O)[C@@H](N)CO)[C@@H](C)CC)C(=O)NCC(=O)N[C@@H](C)C(=O)N[C@@H](CCC(N)=O)C(=O)C1SSC[C@@H](C(=O)N[C@@H](CC(N)=O)C(=O)CN[C@@H](CO)C(=O)N[C@@H](Cc2ccccc2)C(=O)N[C@@H](CCCN=C(N)N)C(N)=O)NC(=O)CNC(=O)[C@H](CC(C)C)NC(=O)CNC(=O)[C@H]1N` (stereo in doubt; 9a): 0.028. Compound `CC[C@H](C)[C@@H]1NC(=O)[C@H](CCCN=C(N)N)NC(=O)[C@H](CC(=O)O)NC(=O)[C@H]([C@@H](C)CC)NC(=O)[C@H](CCCN=C(N)N)NC(=O)[C@@H](NC(=O)CNC(=O)[C@H](Cc2ccccc2)NC(=O)[C@H](CSCNC(C)=O)NC(=O)[C@H](CO)NC(=O)[C@@H](N)CO)CSSC[C@@H](C(=O)N[C@@H](CC(N)=O)C(=O)N[C@@H](CO)C(=O)N[C@@H](Cc2ccccc2)C(=O)N[C@@H](CCCN=C(N)N)C(N)=O)NC(=O)CNC(=O)[C@H](CC(C)C)NC(=O)CNC(=O)[C@H](CSCNC(C)=O)NC(=O)[C@H](CCC(N)=O)NC(=O)[C@H](C)NC(=O)CNC1=O` (H-SSC(Acm)FGCRIDRIGAQC(Acm)GLGCNSFR-NH2; disulfide 6-19) came in with a Relative potency of 0.0022.

On to `CC[C@H](C)[C@@H]1NC(=O)[C@H](CCCN=C(N)N)NC(=O)[C@H](CC(=O)O)NC(=O)[C@H]([C@@H](C)CC)NC(=O)[C@H](CCCN=C(N)N)NC(=O)CNC(=O)CNC(=O)[C@H](Cc2ccccc2)NC(=O)[C@@H](NC(=O)[C@H](CO)NC(=O)[C@@H](N)CO)CSSC[C@@H](C(=O)N[C@@H](CC(N)=O)C(=O)N[C@@H](CO)C(=O)N[C@@H](Cc2ccccc2)C(=O)N[C@@H](CCCN=C(N)N)C(N)=O)NC(=O)CNC(=O)[C@H](CC(C)C)NC(=O)CNC(=O)[C@H](CSCNC(C)=O)NC(=O)[C@H](CCC(N)=O)NC(=O)[C@H](C)NC(=O)CNC1=O`, for which the Relative potency stood at 0.21.
